From ChEMBL document CHEMBL3988442, “University of Dundee, Small-Polar-MMV Screening Library” (2021)
Several values for one entry are separate records, joined by “and”; a condition that tells them apart may be missing. Identical values can stand only once.

test system: Leishmania donovani; experiment: Leishmania intramacrophage assay; format: functional, organism-based; settings: not given

`COCC(=O)Nc1ccnn1-c1ccc(Cl)cc1` and `CCC(N)C(=O)N1CCC(OCc2ccc(Cl)c(Cl)c2)CC1.Cl` (stereo not drawn) are within 0.2 log units of each other in pIC50: 4.861 for the first, 4.694 for the second.

First: Cc1cc(=O)n2nc(Oc3ccc(Cl)c(C)c3)sc2n1
Second: CC(C)COc1cccc(-c2nc3c([nH]2)CCNC3)c1
The pIC50 of the first is lower: 4.378 for the first, 4.688 for the second.

Compared with `CCc1ccc(-c2ncc3c(n2)N(C)CCN(CCN(C)C)C3=O)cc1`, `CCc1nc2c(N3CCC4(CC3)CC(=O)N(CC(C)C)C4)ncnc2o1` is lower in pIC50: 4.813 for the first, 4.305 for the second.

First: Cc1nc2c(c(NCC(O)c3ccccc3Cl)n1)CCNCC2 (stereo not drawn)
Second: Cc1nc2c(c(NCc3ccc(-c4ccccn4)s3)n1)CCNCC2
The pIC50 of the first is lower: 4.337 for the first, 4.913 for the second.

`Clc1ccccc1-c1cc(CNc2ncnc3c2CCNCC3)no1` and `COc1ccc(-c2cc(CNc3ncnc4c3CCNCC4)no2)cc1` are within 0.2 log units of each other in pIC50: 4.821 for the first, 4.744 for the second.

Going from `CN(Cc1cc2cc(F)ccc2[nH]1)c1cc(C2CCCNC2)ncn1` (stereo not drawn) to `CCOc1ccc(-c2c(-c3ccccc3)ncn2C2CCNC2)cn1` (stereo not drawn), the pIC50 falls from 4.89 to 4.374.

`Cc1c(CN2CC[C@@H](N3CCC(O)CC3)[C@H](O)C2)[nH]c2ccc(Cl)cc12` and `CCCC1CCCN(Cc2csc(-c3ncccn3)n2)CC1` (stereo not drawn) are within 0.2 log units of each other in pIC50: 4.995 for the first, 4.896 for the second.

Going from `NCC1Cc2cc(Cl)cc(-c3cncc(C(=O)N4CCCCC4)n3)c2O1` (stereo not drawn) to `Cc1cc2c(c(-c3cncc(C(=O)N4CCCC4)n3)c1)OC(CN)C2` (stereo not drawn), the pIC50 rises from 4.491 to 4.717.

`N#CC1CCCN(c2nc(-c3ccccc3)nc3c2CCNCC3)C1` (stereo not drawn) and `COCCNc1nc(C2CCCC2)nc2c1CCNCC2` are within 0.2 log units of each other in pIC50: 4.667 for the first, 4.615 for the second.

With `Cc1nc(C2(O)CCCNCC2)sc1CCOc1ccccc1.Cl` (stereo not drawn) the pIC50 was 4.482.

`Cn1ncc2c(N3CCCC4(CCNC4)C3)nc(C(C)(C)C)nc21` (stereo not drawn) was tested, and the pIC50 was 4.611 and 4.922.

same assay, conditions: Leishmania donovani

`CCn1cnnc1CNc1nc(C)nc2scc(CC(C)C)c12` and `Cc1nc(NCc2nncn2C2CC2)c2c(CC(C)C)csc2n1` cannot be ordered by IC50: greater than 50.1 µM for the first, greater than 50.1 µM for the second.

`Cc1c(C(=O)O)sc2nc(Cc3ccccc3)nc(N)c12` and `Cc1cc(=O)n2nc(Oc3ccc(Cl)c(C)c3)sc2n1` cannot be ordered by IC50: greater than 50.1 µM for the first, greater than 50.1 µM for the second.

Going from `O=C(NCCCN1CCOCC1)c1ccc(-n2ccc3ccccc32)s1` to `O=C(NCCN1CCOCC1)c1ccc(-n2ccc3ccccc32)s1`, the IC50 rises from 15.8 µM to greater than 50.1 µM.

`O=C(NCCCN1CCCC1=O)c1ccc(-n2ccc3ccccc32)s1` and `CN(CC1CC1)c1ccc2ccc(C(=O)NCCc3ccccc3)cn12` cannot be ordered by IC50: greater than 50.1 µM for the first, greater than 50.1 µM for the second.

`Cn1nnc2c(sc3nc(N4CCOCC4)c4c(c32)CCC4)c1=O` and `CCCn1nnc2c(sc3nc(N4CCOCC4)c4c(c32)CCC4)c1=O` cannot be ordered by IC50: greater than 50.1 µM for the first, greater than 50.1 µM for the second.

`CC(C)n1nnc2c(sc3nc(N4CCOCC4)c4c(c32)CCC4)c1=O` and `CCc1nc2c(N3CCC4(CC3)CC(=O)N(CC(C)C)C4)ncnc2o1` cannot be ordered by IC50: greater than 50.1 µM for the first, greater than 50.1 µM for the second.

`COCCN1CCN(c2ccc3ccc(C(=O)NC4CC4)cn23)CC1` and `COCCNC(=O)c1ccc2ccc(N3CCN(CC4CC4)CC3)n2c1` cannot be ordered by IC50: greater than 50.1 µM for the first, greater than 50.1 µM for the second.

`CN(C)C(=O)N1CCN(c2ccc3ccc(C(=O)NC4CC4)cn23)CC1` and `CN(C)C(=O)c1ccc2ccc(N3CCN(CC4CC4)CC3)n2c1` cannot be ordered by IC50: greater than 50.1 µM for the first, greater than 50.1 µM for the second.

`CN(C)CCNC(=O)c1ccc2ccc(N(C)CC3CC3)n2c1` and `COCCNC(=O)c1ccc2ccc(N(C)CC3CC3)n2c1` cannot be ordered by IC50: greater than 50.1 µM for the first, greater than 50.1 µM for the second.

`CN(CC1CC1)c1ccc2ccc(C(=O)NC3CCCCC3)cn12` and `CN(C)C(=O)CNC(=O)c1ccc2ccc(N(C)CC3CC3)n2c1` cannot be ordered by IC50: greater than 50.1 µM for the first, greater than 50.1 µM for the second.

`CCN(CC)c1ccc2ccc(C(=O)N(C)C)cn12` and `CCNC(=O)c1ccc2ccc(N(CC)CC)n2c1` cannot be ordered by IC50: greater than 50.1 µM for the first, greater than 50.1 µM for the second.

Compared with `CCN(CC)c1ccc2ccc(C(=O)NC3CC3)cn12`, `CCc1ccc(-c2ncc3c(n2)N(C)CCN(CCN(C)C)C3=O)cc1` is lower in IC50: greater than 50.1 µM for the first, 10.3 µM for the second. The second is the more potent here.

`FC1(F)CCN(c2ccccc2)CC12CCN(c1ncccn1)C2` (stereo not drawn) and `Cn1cc(CN2CCC(F)(F)C3(CCN(c4cccc(F)c4)C3)C2)cn1` (stereo not drawn) cannot be ordered by IC50: greater than 50.1 µM for the first, greater than 50.1 µM for the second.

Going from `CCOc1cc(CNCCCn2ccnc2)cc(Cl)c1OCC` to `CCOc1cc(CNCCCn2ccnc2)cc(Cl)c1OC`, the IC50 rises from 7.08 µM to 24.6 µM (3.5-fold).

Compared with `CCOc1ccc(CNCCCn2ccnc2)cc1OC`, `CCOc1ccc(Cl)cc1CNCCCn1ccnc1` is lower in IC50: greater than 50.1 µM for the first, 38.5 µM for the second. The second is the more potent here.

First: COc1ccc(Cl)cc1CNCCCn1ccnc1
Second: COCC(=O)Nc1ccnn1-c1ccc(Cl)cc1
The IC50 of the first is higher: greater than 50.1 µM for the first, 13.5 µM for the second.

`COC(=O)c1sc2nc3c(c(C(F)(F)F)c2c1N)CN(C(C)=O)CC3` and `CC(=O)c1sc2nc3c(c(C(F)(F)F)c2c1N)CN(C(C)=O)CC3` cannot be ordered by IC50: greater than 50.1 µM for the first, greater than 50.1 µM for the second.

`CC(=O)N1CCc2nc3sc(C(N)=O)c(N)c3c(C(F)(F)F)c2C1` and `Cc1nn(C)cc1-c1cc(C(F)(F)F)nc(NC2CCN(C)CC2)n1` cannot be ordered by IC50: greater than 50.1 µM for the first, greater than 50.1 µM for the second.

Compared with `CNC(=O)c1sccc1N(C)S(=O)(=O)c1ccc(Cl)cc1`, `COc1ccc(-c2cc(CNc3ncnc4c3CCNCC4)no2)cc1` is lower in IC50: greater than 50.1 µM for the first, 22.5 µM for the second.

`CCn1nccc1CN(C)C(=O)Cn1cc2c(n1)c(C)nn2CC` and `Cc1nc(NCc2cccnc2)c2c(n1)c(C)nn2C` cannot be ordered by IC50: greater than 50.1 µM for the first, greater than 50.1 µM for the second.

`Cc1nn(C)cc1-c1cc(C(F)(F)F)nc(NC2CCCCC2)n1` and `FC(F)(F)c1cc(-c2cccs2)nc(N2CCN3CCCC3C2)n1` (stereo not drawn) cannot be ordered by IC50: greater than 50.1 µM for the first, greater than 50.1 µM for the second.

Compared with `Cc1cc(C(F)(F)F)nc(N(C)Cc2c(C)noc2C)n1`, `CN(Cc1cc2cc(F)ccc2[nH]1)c1cc(C2CCCNC2)ncn1` (stereo not drawn) is lower in IC50: greater than 50.1 µM for the first, 21.5 µM for the second.

First: O=C(NCC(F)(F)F)c1ccncc1
Second: Cc1nc2c(c(NCC(O)c3ccccc3Cl)n1)CCNCC2 (stereo not drawn)
The IC50 of the first is higher: greater than 50.1 µM for the first, 44.8 µM for the second. The second is the more potent here.

`Clc1ccccc1-c1cc(CNc2ncnc3c2CCNCC3)no1` and `Cc1nc2c(c(NCc3ccc(-c4ccccn4)s3)n1)CCNCC2` are within 1.5-fold of each other in IC50: 12 µM for the first, 17.9 µM for the second.

First: CCOc1ccc(-c2c(-c3ccccc3)ncn2C2CCNC2)cn1 (stereo not drawn)
Second: N#CC1CCCN(c2nc(-c3ccccc3)nc3c2CCNCC3)C1 (stereo not drawn)
The IC50 of the first is higher: greater than 50.1 µM for the first, 20.6 µM for the second.

Going from `Cc1c(CN2CC[C@@H](N3CCC(O)CC3)[C@H](O)C2)[nH]c2ccc(Cl)cc12` to `CCCC1CCCN(Cc2csc(-c3ncccn3)n2)CC1` (stereo not drawn), the IC50 rises from 10.7 µM to 18.4 µM (1.7-fold). The first is the more potent here.

`NCC1Cc2cc(Cl)cc(-c3cncc(C(=O)N4CCCCC4)n3)c2O1` (stereo not drawn) and `Cc1cc2c(c(-c3cncc(C(=O)N4CCCC4)n3)c1)OC(CN)C2` (stereo not drawn) are within 1.5-fold of each other in IC50: 20.8 µM for the first, 27.5 µM for the second.

`CC(C)COc1cccc(-c2nc3c([nH]2)CCNC3)c1` and `Cc1nc(C2(O)CCCNCC2)sc1CCOc1ccccc1.Cl` (stereo not drawn) are within 1.5-fold of each other in IC50: 19.2 µM for the first, 24.2 µM for the second.

`COCCNc1nc(C2CCCC2)nc2c1CCNCC2` and `CCC(N)C(=O)N1CCC(OCc2ccc(Cl)c(Cl)c2)CC1.Cl` (stereo not drawn) are within 1.5-fold of each other in IC50: 17.4 µM for the first, 21.5 µM for the second.
